Reference: patent publication US7214507B2, “Plant enzymes for bioconversion” (Plant Research International B.V., priority 2001, dated 2007)
“Also recorded” adds a separate entry of the source.

Tests used:
[1] = tested on: (+)-germacrene A hydroxylase; assay: Conversion of sesquiterpenes by a microsomal pellet of chicory in the presence of NADPH; details: for Conversion by the (+)-germacrene A hydroxylase containing microsomal pellet (in words): NADPH, microsomal pellet from chicory roots
Experimental: During the whole procedure the plant material was kept on ice as much as possible. After 5 times several seconds of mixing, the slurry was transferred to the cheesecloth with an additional 10 ml of extraction buffer. The cheesecloth was squeezed out and the filtrate was centrifuged (Sigma 2K15) for 20 minutes at 20,000 g and 4° C. The supernatant was poured over a funnel filled with glass wool. […] The resulting microsomal pellets (about 6) were stored under argon at −80° C.
Before incubation, 10 pellets were pottered in 30 mL of assay buffer consisting of 25 mM Tris pH 7.5), 2 mM DTT, 1 mM ascorbic acid, 5 μM FAD, 5 μM FMN and 10% (v/v) glycerol. The enzyme suspension was divided in 1 mL aliquots and incubated with 5 μL substrate solution in the presence of a 1 mM NADPH-regenerating system that consisted of 1 mM NADPH, 5 mM glucose-6-phosphate, and 1.2 IU glucose-6-phosphate dehydrogenase (all from Sigma). The initial concentration of substrate in each assay was 45 μM and all were done in duplicate. […] After 60 minutes the incubations were stopped by storing them at −20° C. in a freezer.
The enzyme assays were extracted 2 times with 1 mL 20% (v/v) ether in pentane, after the addition of 5 μM cis-nerolidol (Fluka). The organic phase was filtered through a glasswool-plugged (dimethyl chlorosilane-treated, Chrompack) Pasteur pipette that contained 0.4 gram of silica and a little anhydrous MgSO4. The pipette was rinsed with 1.5 mL ether and the extract was concentrated to approximately 50 μL under a stream of nitrogen.

(+)-costunolide synthase = target: T1, (+)-costunolide synthase (Cichorium intybus, UniProt G3GBK0); assay: (+)-Costunolide synthase activity, 20,000 g chicory root supernatant with germacrene acid; type: biochemical, Cichorium intybus L.; details: for Percentage Enzyme Activity ± SD, (+)-costunolide synthase: addition at 1 mM, 100% = sum of dehydrosaussurea lactone, saussurea lactone and leucodin peaks with 1 mM NADPH; for Conversion of substrate analogues by the (+)-costunolide synthase (in words): 20,000 g supernatant, NADPH
T1 construct: A cell free extract of chicory roots was prepared from the frozen material; from tissue; host or cells: chicory roots, desalted 20,000 g supernatant
T1 sequence (G3GBK0 1-494): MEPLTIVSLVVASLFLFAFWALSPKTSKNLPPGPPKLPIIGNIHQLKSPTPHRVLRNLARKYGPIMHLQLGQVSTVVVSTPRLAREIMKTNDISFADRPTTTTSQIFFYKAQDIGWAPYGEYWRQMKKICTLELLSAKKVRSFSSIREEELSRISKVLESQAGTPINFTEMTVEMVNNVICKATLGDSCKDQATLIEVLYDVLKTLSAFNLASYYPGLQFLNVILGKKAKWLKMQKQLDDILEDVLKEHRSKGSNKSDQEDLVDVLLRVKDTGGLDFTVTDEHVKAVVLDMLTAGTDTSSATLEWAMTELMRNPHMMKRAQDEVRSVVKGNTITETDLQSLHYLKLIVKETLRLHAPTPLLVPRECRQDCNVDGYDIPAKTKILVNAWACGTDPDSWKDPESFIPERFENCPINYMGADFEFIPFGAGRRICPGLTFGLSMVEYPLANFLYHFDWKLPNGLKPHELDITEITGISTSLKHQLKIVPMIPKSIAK
Experimental: A cell free extract of chicory roots was prepared from the frozen material in the same way as described for isolation of the germacrene A hydroxylase (Example 1), but MgCl2 was not added to the extraction buffer since the accompanying (+)-germacrene A synthase activity was not essential for the detection of (+)-costunolide synthase activity. […] DTT was omitted from the assay buffer, because SH-groups present in DTT might undergo an “Michael-type addition” to the C11–C13 exocyclic double bond of (+)-costunolide Kupchan et al., 1970). […] Incubations were also done with boiled desalted supernatant and in the absence of NADPH. The experiments were repeated with elema-1,3,11(13)-trien-12-oic acid (FIG. 2, 9) and a mixture of α- and γ-costic acid (14) that might serve as substrate analogues for the germacrene acid (4). After 1 h of incubation at 30° C., the reactions were stored in the freezer.
The organic phase was filtered through a glass-wool plugged (dimethyl chlorosilane-treated glasswool; Chrompack) Pasteur pipette that contained 0.45 g of silica and a little anhydrous MgSO4. […] Samples of 2 μL were analysed by GC-MS using an injection port temperature of 320° C. to provoke Cope rearrangement of (+)-costunolide (5). Mass spectra were recorded at 70 eV scanning from 35 to 300 atomic mass units; the GC oven temperature was programmed as described before (de Kraker et al., 1998).
To determine whether the formation of (+)-costunolide (5) from germacrene acid (4) was catalysed by a cytochrome P450-enzyme, the effect of various established cytochrome P450-inhibitors (cytochrome C, metyrapone, clotrimazole, micozanole, and amino-benzotriazole) on this reaction were tested, as well as the effect of CO or an argon atmosphere. The cofactor dependence was also investigated, i.e. NAD(P)^+ or NADH was added instead of NADPH. Experiments were carried out in a similar manner as described for the germacrene A hydroxylase in Example I using a 20,000 g supernatant and 5 μL of 0.2 mM cis-nerolidol as internal standard. Blue-light reversal of CO-inhibition was investigated with gas-mixtures of 10% O2 plus 90% N2 (blank) and 10% O2 plus 90% CO.

[2] = tested on: (+)-costunolide reductase activity; assay: Formation of 11(S),13-dihydrocostunolide from (+)-costunolide by 20,000 g chicory root supernatant; type: biochemical, Cichorium intybus L.; details: for Reduction of the C11–C13 exocyclic double bond (in words): 20 μM substrate, NADPH
Experimental: (§1) Incubations were also done with boiled desalted supernatant and in the absence of NADPH. The experiments were repeated with elema-1,3,11(13)-trien-12-oic acid (FIG. 2, 9) and a mixture of α- and γ-costic acid (14) that might serve as substrate analogues for the germacrene acid (4). After 1 h of incubation at 30° C., the reactions were stored in the freezer.
(§2) The organic phase was filtered through a glass-wool plugged (dimethyl chlorosilane-treated glasswool; Chrompack) Pasteur pipette that contained 0.45 g of silica and a little anhydrous MgSO4. […] Samples of 2 μL were analysed by GC-MS using an injection port temperature of 320° C. to provoke Cope rearrangement of (+)-costunolide (5).
(§3) Incubations as described for the germacrene acid were also done with (+)-costunolide (30 μM) to test whether any further enzymatic conversion of this compound would occur during the incubation of germacrene acid. Parthenolide (20 μM) (FIG. 9, 17) was incubated as well since it might be an intermediate in the formation of guaianolides. […] The effect of established cytochrome P450 inhibitors and CO on the conversion of (+)-costunolide was studied, just as the effect of various pyridine nucleotide cofactors and an argon atmosphere.

leucodin biosynthesis = assay: Formation of leucodin from (+)-costunolide by 20,000 g chicory root supernatant; type: biochemical, Cichorium intybus L.
Experimental: as §1, §2, §3

[3] = tested on: (+)-germacrene A hydroxylase; assay: Effect of the used solvent for (+)-γ-gurjunene on enzyme activity; type: biochemical, Cichorium intybus L.; details: peak height of γ-gurjunene alcohol relative to the internal standard (5 nmol cis-nerolidol); 5 μL of 10 mM γ-gurjunene in the solvent
Experimental: Before experiments as described in this example were started, it was tested which organic solvent could be best used to dissolve the substrate. […] Karp et al., 1990).

[4] = tested on: NAD(P)+-dependent dehydrogenase(s); assay: Oxidation of alcohols by 150,000 g supernatant of chicory roots with NAD(P)+; type: biochemical, Cichorium intybus L.
Experimental: It was assumed that this β-nootkatol is an intermediate in the formation of nootkatone. For this reason incubations of 100 μM β-nootkatol were performed at pH 10 with NAD(P)^+and a 150,000 g supernatant of chicory roots, such as described for the conversion of (−)-elema-1,3,11(13)-12-ol and germacra-1(10),4,11(13)-trien-12-ol by NADP^+-dependent dehydrogenases by De Kraker et al. (2001). During incubation the added β-nootkatol was converted for more than 60% into nootkatone in the presence of either 1 mM NADP^+ or 1 mM NAD^+. In the absence of these cofactors conversion still amounted to 25%, whereas the boiled enzyme extract gave no conversion of β-nootkatol. At pH 7.5, enzyme activity was slightlylower, whereas a 150,000 g pellet, as expected, yielded 3-fold less dehydrogenase activity than the corresponding supernatant.
To get some more information about the substrate specificity of the dehydrogenase(s) present in chicory roots, incubations with the 150,000 g supernatant were also performed with 100 μM trans,trans-farnesol as substrate (FIG. 19) in the presence of either NAD^+ or NADP^+. Trans,trans-farnesol was converted up to 60% into a mixture of trans,trans-farnesal and cis,trans-farnesal, and small amounts of farnesoic acid were observed as well.

[5] = atmosphere: 80% CO + 20% O2 or argon, air = 100%
[6] = pyridine nucleotide cofactor 1 mM, substrate (+)-costunolide
[7] = inhibitor 10 μM, DMSO (1%) control = 100%
[8] = inhibitor 100 μM, control = 100%

C=C(C)C1CC=C(C)CC1 (single isomer, unassigned; (+)) [(+)-limonene]
Conversion by the (+)-germacrene A hydroxylase containing microsomal pellet (in words) [1]: Some conversion

C=C(C)[C@H]1C/C=C(\C)CC/C=C(\C)CC1 [(+)-germacrene A]
Subsequent oxidations into germacrene aldehyde and acid, share of the produced germacrene alcohol ([1]; microsomal pellet, pH 7.5, NADPH-regenerating system): approx. 15%

C=C(C)[C@@H]1CC[C@@]2(C)CCCC(=C)[C@@H]2C1 [(+)-β-selinene]
Share of the added substrate that was hydroxylated ([1]; 50 nmol added): Approximately 30%

CC1=CC[C@@]23[C@@H]([C@@H]12)[C@H](C(C)C)CC[C@H]3C [(−)-(α)-Cubebene]
Conversion by the (+)-germacrene A hydroxylase containing microsomal pellet (in words) [1]: not converted

[C-]#[O+] [CO]
Effect on the produced sum of (+)-costunolide, 11(S),13-dihydrocostunolide and leucodin (in words) ((+)-costunolide synthase; 90% CO + 10% O2, blue light 450 nm): inhibitory effect
Percentage Enzyme Activity ± SD, Dihydrocostunolide (20) [2, 5]: 140 ± 4%
Formation of leucodin from (+)-costunolide, effect of inhibitors (in words) (leucodin biosynthesis): strongly inhibited
Percentage Enzyme Activity ± SD, Leucodin (22) (leucodin biosynthesis; [5]): 8 ± 1%

C[S+](C)[O-] [DMSO]
Enzyme activity ± SD [3]: 1.80 ± 0.09

NC(=O)C1=CN([C@@H]2O[C@H](COP(=O)(O)OP(=O)(O)OC[C@H]3O[C@@H](n4cnc5c(N)ncnc54)[C@H](O)[C@@H]3O)[C@@H](O)[C@H]2O)C=CC1 [NADH]
Percentage Enzyme Activity ± SD, (+)-costunolide synthase ((+)-costunolide synthase): 7 ± 2%
Percentage Enzyme Activity ± SD, Dihydrocostunolide (20) [2, 6]: 14 ± 2%
Percentage Enzyme Activity ± SD, Leucodin (22) (leucodin biosynthesis; [6]): 0 ± 0%

NC(=O)C1=CN([C@@H]2O[C@H](COP(=O)(O)OP(=O)(O)OC[C@H]3O[C@@H](n4cnc5c(N)ncnc54)[C@H](OP(=O)(O)O)[C@@H]3O)[C@@H](O)[C@H]2O)C=CC1 [NADPH]
Percentage Enzyme Activity ± SD, (+)-costunolide synthase ((+)-costunolide synthase): 100 ± 8%
Percentage Enzyme Activity ± SD, Dihydrocostunolide (20) [2, 6]: ^a100 ± 3 ^ %
Percentage Enzyme Activity ± SD, Leucodin (22) (leucodin biosynthesis; [6]): ^a100 ± 10 ^ %

CC(C)=CCC/C(C)=C/CC/C(C)=C/CO [Trans,trans-farnesol, trans,trans-farnesol]
Conversion into a mixture of trans,trans-farnesal and cis,trans-farnesal ([4]; 100 μM substrate, NAD+ or NADP+, 150,000 g supernatant): up to 60%
Conversion of farnesol into farnesal, share of maximum enzyme activity ([4]; pH 7.0, maximum at pH 10): 30%

Nn1nnc2ccccc21 [aminobenzotriazole]
Reduction of the amount of measurable enzymatic products of germacrene acid ((+)-costunolide synthase; inhibitor 100 μM): 44%
Percentage Enzyme Activity ± SD, Dihydrocostunolide (20) [2, 7]: 75 ± 8%
Percentage Enzyme Activity ± SD, Leucodin (22) (leucodin biosynthesis; [7]): 86 ± 33%

[Ar] [argon]
Percentage Enzyme Activity ± SD, (+)-costunolide synthase, argon atmosphere ((+)-costunolide synthase; 1 mM NADPH + argon atmosphere): 0 ± 0%
Percentage Enzyme Activity ± SD, Dihydrocostunolide (20) [2, 5]: 134 ± 6%
Percentage Enzyme Activity ± SD, Leucodin (22) (leucodin biosynthesis; [5]): 0 ± 0%

Clc1ccccc1C(c1ccccc1)(c1ccccc1)n1ccnc1 [clotrimazole]
Reduction of the amount of measurable enzymatic products of germacrene acid ((+)-costunolide synthase; inhibitor 100 μM): 97%
Percentage Enzyme Activity ± SD, Dihydrocostunolide (20) [2, 7]: 119 ± 9%
Percentage Enzyme Activity ± SD, Leucodin (22) (leucodin biosynthesis; [7]): 0 ± 0%

C=C1CC[C@H]2C(=C)CC[C@H]3C(=C)C(=O)O[C@@H]3[C@@H]12 [dehydrocostus lactone]
Reduction of the C11–C13 exocyclic double bond (in words) [2]: not capable of doing the same
Reduction of the C11–C13 exocyclic double bond (in words) ([2]; listed as dehydrocostuslacton): not reduced

C=CC1(C)CCC(C(=C)C(=O)O)CC1C(=C)C (stereo not shown) [elema-1,3,11(13)-trien-12-oic acid]
Conversion of substrate analogues by the (+)-costunolide synthase (in words) ((+)-costunolide synthase): no detectable conversion; also recorded: not capable of converting

CCO [ethanol]
Enzyme activity ± SD [3]: 1.87 ± 0.01

CC(C)=C1C/C=C(\C)CC/C=C(\C)CC1=O [germacrone]
Conversion by the (+)-germacrene A hydroxylase containing microsomal pellet (in words) [1]: not converted; also recorded: not accepted as a substrate; also recorded: not hydroxylated

CCCCCC [hexane]
Enzyme activity ± SD [3]: <0.1

CC(C)O [iso-propanol]
Enzyme activity ± SD [3]: 1.76 ± 0.16

C=C(C)[C@H]1CC=C(C)CC1 [limonene]
Conversion by the (+)-germacrene A hydroxylase containing microsomal pellet (in words) [1]: hardly converted; also recorded: did hardly occur

CC(C)(C(=O)c1cccnc1)c1cccnc1 [metyrapone]
Reduction of the amount of measurable enzymatic products of germacrene acid ((+)-costunolide synthase; inhibitor 1 mM): 78%
Percentage Enzyme Activity ± SD, Dihydrocostunolide (20) [2, 8]: 87 ± 11%
Percentage Enzyme Activity ± SD, Leucodin (22) (leucodin biosynthesis; [8]): 70 ± 16%

Clc1ccc(COC(Cn2ccnc2)c2ccc(Cl)cc2Cl)c(Cl)c1 (stereo not shown) [miconazole]
Reduction of the amount of measurable enzymatic products of germacrene acid ((+)-costunolide synthase; inhibitor 100 μM): 71%
Percentage Enzyme Activity ± SD, Dihydrocostunolide (20) [2, 7]: 100 ± 5%
Percentage Enzyme Activity ± SD, Leucodin (22) (leucodin biosynthesis; [7]): 0 ± 0%

C=C(C)[C@@H]1CC[C@@]2(C)CCC[C@](C)(O)[C@@H]2C1 [neointermedeol]
Less efficiently hydroxylated than β-selinene [1]: 15 fold

CCCCC [pentane]
Enzyme activity ± SD [3]: 0.47 ± 0.07

C=C(C(=O)O)[C@@H]1CC[C@@]2(C)CCC=C(C)[C@@H]2C1 [α-costic acid]
Conversion of substrate analogues by the (+)-costunolide synthase (in words) ((+)-costunolide synthase): not capable of converting

C=C(C(=O)O)[C@@H]1CC[C@@]2(C)CCCC(C)=C2C1 [γ-costic acid]
Conversion of substrate analogues by the (+)-costunolide synthase (in words) ((+)-costunolide synthase): not converted either

(−)-(α)-gurjunene
Conversion by the (+)-germacrene A hydroxylase containing microsomal pellet (in words) [1]: not converted

(−)-limonene
Conversion by the (+)-germacrene A hydroxylase containing microsomal pellet (in words) [1]: Some conversion

cytochrome C: established cytochrome P450 inhibitor
Reduction of the amount of measurable enzymatic products of germacrene acid ((+)-costunolide synthase; inhibitor 100 μM): no enzymatic products of germacrene acid (4) were measured
Percentage Enzyme Activity ± SD, Dihydrocostunolide (20) [2, 8]: 105 ± 5%
Percentage Enzyme Activity ± SD, Leucodin (22) (leucodin biosynthesis; [8]): 0 ± 0%
